Laboratory results published in US8470844B2, “Imidazoacridinone derivative compounds and methods for their use” (Technion Research & Development Foundation Limited, priority 2008, dated 2013).
Positions count from the first letter of the chain named.

Tests used:
wild type R482 ABCG2 = biological target: T1, wild type R482 ABCG2 (Homo sapiens, UniProt Q9UNQ0); test: Flow cytometric accumulation in HEK293 transfectants, wild type R482 ABCG2; details: HEK293 wild type R482 ABCG2, 0.1 μM TMR, ±5 μM FTC
T1 sequence (Q9UNQ0 1-655): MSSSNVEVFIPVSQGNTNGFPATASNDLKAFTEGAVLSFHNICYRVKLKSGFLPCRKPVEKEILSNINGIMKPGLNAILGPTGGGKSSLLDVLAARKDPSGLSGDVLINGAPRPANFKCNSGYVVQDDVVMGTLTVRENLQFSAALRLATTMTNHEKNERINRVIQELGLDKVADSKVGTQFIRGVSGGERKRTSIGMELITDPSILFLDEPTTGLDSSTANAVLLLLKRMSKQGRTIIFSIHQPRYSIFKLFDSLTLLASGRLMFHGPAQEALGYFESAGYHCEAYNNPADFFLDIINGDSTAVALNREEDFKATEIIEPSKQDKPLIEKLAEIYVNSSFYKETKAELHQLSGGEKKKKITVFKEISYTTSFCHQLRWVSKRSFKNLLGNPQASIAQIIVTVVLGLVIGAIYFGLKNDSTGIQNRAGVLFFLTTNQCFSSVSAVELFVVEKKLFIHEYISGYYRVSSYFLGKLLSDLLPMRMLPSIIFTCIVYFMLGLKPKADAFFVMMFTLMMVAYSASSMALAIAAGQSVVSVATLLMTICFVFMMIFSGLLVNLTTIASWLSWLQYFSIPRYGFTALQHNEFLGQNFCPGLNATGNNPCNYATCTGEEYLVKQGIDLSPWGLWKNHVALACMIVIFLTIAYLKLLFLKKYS
Method: (§1) For cytotoxicity and accumulation experiments, cells were grown in drug-free medium for at least one week prior to the experiments. Human embryonic kidney cells (HEK293) and their stable transfectants overexpressing the R482, G482 and T482 ABCG2 were grown in the above RPMI-1640 medium supplemented with 2 mg/ml G-418. Bram, E. E., et al., (2006) Cancer Chemother Pharmacol 58(6), 826-834.
(§2) IA derivative and tetramethylrosamine (TMR) accumulation in parental HEK293 and their HEK293/ABCG2 R/G/T482 transfectants were carried out as described herein with the a slight amendment of using a single IA concentration of 1 μM ±FTC (5 μM) for the selected as well as 0.1 μM for TMR accumulation. Robey, R. W., et al., (2003) Br J Cancer 89(10), 1971-1978. Cellular fluorescence was determined using a FACSCalibur (BD Bioscience, San Jose, Calif. USA) flow cytometer. FL1-H excitation of IAs was at 488 nm and emission was collected at 525 nm, whereas FL2-H excitation of TMR was at […] and emission was collected at 574 nm. Flow cytometric results are presented as means±SD of 3 independent experiments.
(§3) Bram, E. E., et al., (2006) Cancer Chemother Pharmacol 58(6), 826-834.

mutant G482 ABCG2 = biological target: T2, mutant G482 ABCG2 (Homo sapiens, UniProt Q9UNQ0, R482G); test: Flow cytometric accumulation in HEK293 transfectants, mutant G482 ABCG2; details: HEK293 mutant G482 ABCG2, 0.1 μM TMR, ±5 μM FTC
T2 sequence (Q9UNQ0 1-655 R482G): T1 sequence (Q9UNQ0 1-655) with R482G
Method: as §1, §2, §3

mutant T482 ABCG2 = biological target: T3, mutant T482 ABCG2 (Homo sapiens, UniProt Q9UNQ0, R482T); test: Flow cytometric accumulation in HEK293 transfectants, mutant T482 ABCG2; details: HEK293 mutant T482 ABCG2, 0.1 μM TMR, ±5 μM FTC
T3 sequence (Q9UNQ0 1-655 R482T): T1 sequence (Q9UNQ0 1-655) with R482T
Method: as §1, §2, §3

[1] = test system: untransfected HEK293 cells; test: Flow cytometric accumulation in untransfected HEK293 cells; type: cell-based, Human; details: ±5 μM FTC
Method: as §1, §2, §3

A549 cells = test: MTT cytotoxicity assay, parental A549 cells; type: cell-based, Human; details: 96 hours exposure, mean of at least three experiments
Method: (§4) Tissue culture: Human non-small cell lung cancer A549 cells and T-cell leukemia CCRF-CEM cells were grown under monolayer conditions or up to a maximal density of 10^6 cells/ml (for CCRF-CEM cells) in RPMI-1640 medium (GIBCO) supplemented with 10% fetal calf serum, 2 mM glutamine, 100 μg/ml penicillin and 100 μg/ml streptomycin (Biological Industries, Beth-Haemek, Israel) in a humid atmosphere of 5% CO2. Drug resistant A549/K1.5 cells with ABCG2 overexpression were maintained under a continuous drug selection with 1.5 μM C-1305. Bram, E. E., et al., (2007) Biochem Pharmacol 74(1), 41-53.
(§5) Cytotoxicity and growth inhibition assays: The cytotoxic activity of the various IA antitumor agents was determined using the MTT assay. Poindessous, V., et al., (2003) Clin Cancer Res 9(7), 2817-2825.
(§6) Exponentially growing cells were seeded at 5×10^3 cells/well in 24-well plates (2 ml medium/well). Following an overnight incubation, cells were exposed to different drug concentrations for 96 hours. Cellular viability was determined by adding the tetrazolium salt MTT for 4 h at 37° C., followed by solubilization of the intracellular precipitated formazan in 1 ml DMSO and absorbance was determined by a microplate reader (ASYS Hitech GmbH, Austria). Drug concentrations required to inhibit cell growth by 50% (IC50) compared with untreated controls were determined from the curves of survival versus drug concentrations using the SlideWrite software (Advanced Graphics Software, Inc., Encinitas, Calif.). Resistance folds (RF) were calculated by dividing the IC50 value of the resistant cells by that of the parental cell line. Values presented are means of at least three independent experiments, each performed in duplicates.

A549/K1.5 cells = test: MTT cytotoxicity assay, ABCG2-overexpressing A549/K1.5 cells; type: cell-based, Human
Method: as §4, §5, §6
Quantitative evaluation of ABCG2 interaction with various IA derivatives: The extent of ABCG2-mediated resistance was expressed using the Resistance Fold (RF) parameter representing the ratio between the IC50 values of the resistant cells and parental cells. Likewise, ABCG2-dependent differential accumulation of IAs in ABCG2-overexpressing A549/K1.5 cells was compared using the ratio of IA accumulation in the presence or absence of the potent ABCG2 inhibitor FTC. This was termed the FTC-dependent Accumulation Fold (AF) and was determined for each IA at a constant IA concentration of 10 μM.

ABCG2 (A549/K1.5 cells) = biological target: T4, ABCG2 (A549/K1.5 cells) (Homo sapiens, UniProt Q9UNQ0); test: Fluorescence microscopy of nuclear accumulation of IAs in A549/K1.5 cells; type: cell-based; details: 10 μM IA, 1 hr
T4 construct: Drug resistant A549/K1.5 cells with ABCG2 overexpression were maintained under a continuous drug selection with 1.5 μM C-1305; endogenous in cells; host or cells: A549/K1.5 (C-1305-selected subline of human non-small cell lung cancer A549)
T4 sequence (Q9UNQ0 1-655): T1 sequence (Q9UNQ0 1-655)
Method: In immunofluorescence microscopy of plasma membrane targeting of ABCG2 and nuclear accumulation of IAs, cells (1×10^4/well) were seeded in 24-well plates (1 ml medium/well) and incubated for 2 days, following which some wells were supplemented with 10 μM IA-containing medium±5 μM FTC and incubated for 1 h at 37° C. Cells were then washed twice with ice-cold PBS containing 0.1% BSA and blocked for 10 min at 4° C. with PBS containing 5% BSA. Cells were then washed once with ice-cold PBS containing 0.1% BSA and incubated for 30 min at 4° C. with a Phycoerythrin-conjugated, affinity-purified 5D3 mouse anti-human ABCG2 monoclonal antibody (1:100; eBioscience). Unspecific fluorescence was determined using cells that were incubated only with a secondary Phycoerythrin (PE)-conjugated goat anti-mouse IgG (1:200; Jackson Immunoresearch Labs, West Grove, Pa.). Cells were then washed twice and subjected to fluorescence microscopy using a DMIRE2 fluorescence microscope equipped with a DC300FX camera (Leica Microsystems, Wetzlar, Germany).
In order to exclude the possibility that differential subcellular accumulation of IA derivatives is the basis of the observed difference in cytotoxicity and cellular fluorescence, A549/K1.5 cells were incubated with 10 μM of selected IA derivatives from both group A and B in the presence or absence of FTC and subjected to fluorescence microscopy.

CN(C)c1ccc2c(-c3ccc(CCl)cc3)c3ccc(=[N+](C)C)cc-3oc2c1 [TMR, tetramethylrosamine]
AF (FTC inducible accumulation fold) (wild type R482 ABCG2): 1.4
AF (FTC inducible accumulation fold) (mutant G482 ABCG2): marked AF
AF (FTC inducible accumulation fold) (mutant T482 ABCG2): marked AF
AF (FTC inducible accumulation fold) ([1]; 0.1 μM TMR): 0.8 fold

CCN(CC)CCNc1ccc2nc(C)n3c4ccc(O)cc4c(=O)c1c23.Cl [C-1310]
IC50 (A549 cells): 0.06 ± 0.008 µM
IC50 (A549/K1.5 cells; ABCG2-overexpressing A549/K1.5 cells, 96 hours exposure, MTT): 1.22 ± 0.07 µM
RF (resistance fold) (A549/K1.5 cells; IC50 of A549/K1.5 cells divided by IC50 of parental A549 cells): 20.30
resistance of A549/K1.5 cells (in words) (A549/K1.5 cells; versus parental A549 cells): prominent resistance
intracellular accumulation (fluorescence microscopy) (ABCG2 (A549/K1.5 cells); absence of FTC): no apparent intracellular accumulation
nuclear accumulation (fluorescence microscopy) (ABCG2 (A549/K1.5 cells); presence of 5 μM FTC): marked restoration of nuclear accumulation
efflux (in words) ([1]; 1 μM IA): not from untransfected HEK293 cells
